Results reported in article PMC12405493, “Selective ubiquitination of drug-like small molecules by the ubiquitin ligase HUWE1” (Nature Communications, 2025).

Columns and labels:
HEK293T WT cells = experiment: Click chemistry-based detection of compound ubiquitination in cell lysates; parameters: species or system human; conditions: for Compound ubiquitination in cells (click chemistry, cell lysates): HEK293T WT, 10 μM or 20 μM
Description: Cell lysate-based applications: HEK293T WT or HUWE1 KO cells at ~70% confluency on a 10-cm dish were treated with 10 μM or 20 μM BI8626 derivative 6, 7 or 8 for the indicated times. As indicated in the results section, derivative 8 yielded slightly stronger signal than 6 and was thus used for analyses of the prerequisites of cellular small-molecule ubiquitination. Treatment with 1 μM TAK243 (MedChemExpress) or 10 μM MLN4924 (Sigma-Aldrich) was performed for 1 h, prior to derivative 8 administration. Cells were collected with ice-cold 1 x DPBS, centrifugated, and the cell pellet was resuspended in 300 μL sodium phosphate buffer (pH 7.0) (Jena Bioscience), supplemented with 1% (v/v) NP-40, 3 M urea, 10 mM NEM, 50 μM PR-619, 10 μM MG-132 and protease-phosphatase inhibitor cocktail. After 20 min rotating at 4 °C, the lysate was cleared by centrifugation, the total protein concentration determined with a Pierce BCA Protein Assay Kit, the sample diluted to ~7.5 μg μL^−1 and supplemented with 5 μM IRDye 800CW Azide (LI-COR), a mixture of 2 mM CuSO4/10 mM THPTA (Jena Bioscience) and 100 mM sodium ascorbate. The click chemistry reaction was performed in the dark at 37 °C, shaking at 300 rpm. After 1 h, the reaction was quenched with 40 mM EDTA, diluted 1.2-fold with 10 mM Tris (pH 7.5), 150 mM NaCl and 0.5 mM EDTA. 25 μL Ubiquitin-Trap Magnetic Agarose beads (Proteintech) were added, the mixture was rotated at 4 °C for 80 min, the resin washed 3 x with 10 mM Tris (pH 7.5), 150 mM NaCl, 0.05% (v/v) NP-40, 0.5 mM EDTA and 3 M urea, following protein elution in 40 μL of 1.5 x SDS-loading dye at 95 °C for 5 min. 10 μL were subjected to SDS-PAGE and analyzed by fluorescence scanning (Odyssey CLx; LI-COR) and Coomassie staining.

HUWE1^HECT [1] = biological target: T1, HUWE1^HECT (Homo sapiens, UniProt Q7Z6Z7); experiment: HUWE1^HECT multi-turnover ubiquitination reactions (fluorescent Ub tracer, SDS-PAGE); type: biochemical; conditions: 20 μM compound
T1 construct: the isolated HECT domain of HUWE1 (HUWE1^HECT); made in house
T1 sequence (Q7Z6Z7 4038-4374 limits assumed): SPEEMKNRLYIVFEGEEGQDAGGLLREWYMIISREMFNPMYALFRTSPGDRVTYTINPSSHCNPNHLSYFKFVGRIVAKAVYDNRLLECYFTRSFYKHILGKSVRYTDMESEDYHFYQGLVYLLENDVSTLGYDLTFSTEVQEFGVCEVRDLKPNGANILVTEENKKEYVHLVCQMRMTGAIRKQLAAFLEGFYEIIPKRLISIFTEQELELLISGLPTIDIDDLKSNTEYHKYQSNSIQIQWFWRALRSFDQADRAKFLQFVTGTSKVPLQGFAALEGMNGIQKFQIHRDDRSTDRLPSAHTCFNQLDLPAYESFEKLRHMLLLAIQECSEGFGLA
Description: (§1) HUWE1^HECT multi-turnover ubiquitination reactions were performed for 30 minutes (unless stated otherwise) with 200 nM UBA1, 5 μM UBE2L3 or UBE2D3 (as specified), 1 μM HUWE1^HECT and 30 μM Ub in 25 mM HEPES (pH 7.5), 100 mM NaCl, 3 mM MgCl2, and 0.5 mM TCEP. HUWE1^FL multi-turnover ubiquitination reactions included 50 nM UBA1, 2.5 μM UBE2L3, 0.05 μM HUWE1^FL, 0.5 μM MCL1 (or 0.5 μM H2B or 1 μM FOXP3) and 20 μM Ub in 20 mM HEPES (pH 7.5), 100 mM NaCl, 3 mM MgCl2, and 0.5 mM TCEP. All multi-turnover reactions were started by the addition of 1 mM ATP, incubated at 30 °C, quenched with SDS-loading dye. If not stated otherwise, HUWE1^FLautoubiquitination reactions were incubated for 20 minutes. Substrate ubiquitination reactions with MCL1 or H2B were incubated for 10 and 20 min, respectively; those with FOXP3 for 30 min. Those reactions that were monitored by fluorescence contained a fluorescent Ub tracer (IRDye 800CW maleimide; LI-COR)[55] and were monitored using an Odyssey CLx scanner (LI-COR), followed by Coomassie staining. In the fluorescence images, only those marker bands are labeled (in kDa) that are visible by fluorescence; all marker bands are labeled in the Coomassie-stained images. Statistical analyses were performed with Prism 9 v.9.3.1 (GraphPad).

HUWE1^FL [2] = biological target: T2, HUWE1^FL (Homo sapiens, UniProt Q7Z6Z7); experiment: HUWE1^FL multi-turnover ubiquitination reactions without protein substrate (autoubiquitination, free Ub chains); type: biochemical; conditions: for Inhibition by derivatives modified at the piperazine-linked benzyl moiety: Supplementary Fig. 18c, d
T2 construct: made in house; host or cells: HEK293T (transient transfection, anti-Flag purification, SEC)
T2 sequence (Q7Z6Z7 whole entry): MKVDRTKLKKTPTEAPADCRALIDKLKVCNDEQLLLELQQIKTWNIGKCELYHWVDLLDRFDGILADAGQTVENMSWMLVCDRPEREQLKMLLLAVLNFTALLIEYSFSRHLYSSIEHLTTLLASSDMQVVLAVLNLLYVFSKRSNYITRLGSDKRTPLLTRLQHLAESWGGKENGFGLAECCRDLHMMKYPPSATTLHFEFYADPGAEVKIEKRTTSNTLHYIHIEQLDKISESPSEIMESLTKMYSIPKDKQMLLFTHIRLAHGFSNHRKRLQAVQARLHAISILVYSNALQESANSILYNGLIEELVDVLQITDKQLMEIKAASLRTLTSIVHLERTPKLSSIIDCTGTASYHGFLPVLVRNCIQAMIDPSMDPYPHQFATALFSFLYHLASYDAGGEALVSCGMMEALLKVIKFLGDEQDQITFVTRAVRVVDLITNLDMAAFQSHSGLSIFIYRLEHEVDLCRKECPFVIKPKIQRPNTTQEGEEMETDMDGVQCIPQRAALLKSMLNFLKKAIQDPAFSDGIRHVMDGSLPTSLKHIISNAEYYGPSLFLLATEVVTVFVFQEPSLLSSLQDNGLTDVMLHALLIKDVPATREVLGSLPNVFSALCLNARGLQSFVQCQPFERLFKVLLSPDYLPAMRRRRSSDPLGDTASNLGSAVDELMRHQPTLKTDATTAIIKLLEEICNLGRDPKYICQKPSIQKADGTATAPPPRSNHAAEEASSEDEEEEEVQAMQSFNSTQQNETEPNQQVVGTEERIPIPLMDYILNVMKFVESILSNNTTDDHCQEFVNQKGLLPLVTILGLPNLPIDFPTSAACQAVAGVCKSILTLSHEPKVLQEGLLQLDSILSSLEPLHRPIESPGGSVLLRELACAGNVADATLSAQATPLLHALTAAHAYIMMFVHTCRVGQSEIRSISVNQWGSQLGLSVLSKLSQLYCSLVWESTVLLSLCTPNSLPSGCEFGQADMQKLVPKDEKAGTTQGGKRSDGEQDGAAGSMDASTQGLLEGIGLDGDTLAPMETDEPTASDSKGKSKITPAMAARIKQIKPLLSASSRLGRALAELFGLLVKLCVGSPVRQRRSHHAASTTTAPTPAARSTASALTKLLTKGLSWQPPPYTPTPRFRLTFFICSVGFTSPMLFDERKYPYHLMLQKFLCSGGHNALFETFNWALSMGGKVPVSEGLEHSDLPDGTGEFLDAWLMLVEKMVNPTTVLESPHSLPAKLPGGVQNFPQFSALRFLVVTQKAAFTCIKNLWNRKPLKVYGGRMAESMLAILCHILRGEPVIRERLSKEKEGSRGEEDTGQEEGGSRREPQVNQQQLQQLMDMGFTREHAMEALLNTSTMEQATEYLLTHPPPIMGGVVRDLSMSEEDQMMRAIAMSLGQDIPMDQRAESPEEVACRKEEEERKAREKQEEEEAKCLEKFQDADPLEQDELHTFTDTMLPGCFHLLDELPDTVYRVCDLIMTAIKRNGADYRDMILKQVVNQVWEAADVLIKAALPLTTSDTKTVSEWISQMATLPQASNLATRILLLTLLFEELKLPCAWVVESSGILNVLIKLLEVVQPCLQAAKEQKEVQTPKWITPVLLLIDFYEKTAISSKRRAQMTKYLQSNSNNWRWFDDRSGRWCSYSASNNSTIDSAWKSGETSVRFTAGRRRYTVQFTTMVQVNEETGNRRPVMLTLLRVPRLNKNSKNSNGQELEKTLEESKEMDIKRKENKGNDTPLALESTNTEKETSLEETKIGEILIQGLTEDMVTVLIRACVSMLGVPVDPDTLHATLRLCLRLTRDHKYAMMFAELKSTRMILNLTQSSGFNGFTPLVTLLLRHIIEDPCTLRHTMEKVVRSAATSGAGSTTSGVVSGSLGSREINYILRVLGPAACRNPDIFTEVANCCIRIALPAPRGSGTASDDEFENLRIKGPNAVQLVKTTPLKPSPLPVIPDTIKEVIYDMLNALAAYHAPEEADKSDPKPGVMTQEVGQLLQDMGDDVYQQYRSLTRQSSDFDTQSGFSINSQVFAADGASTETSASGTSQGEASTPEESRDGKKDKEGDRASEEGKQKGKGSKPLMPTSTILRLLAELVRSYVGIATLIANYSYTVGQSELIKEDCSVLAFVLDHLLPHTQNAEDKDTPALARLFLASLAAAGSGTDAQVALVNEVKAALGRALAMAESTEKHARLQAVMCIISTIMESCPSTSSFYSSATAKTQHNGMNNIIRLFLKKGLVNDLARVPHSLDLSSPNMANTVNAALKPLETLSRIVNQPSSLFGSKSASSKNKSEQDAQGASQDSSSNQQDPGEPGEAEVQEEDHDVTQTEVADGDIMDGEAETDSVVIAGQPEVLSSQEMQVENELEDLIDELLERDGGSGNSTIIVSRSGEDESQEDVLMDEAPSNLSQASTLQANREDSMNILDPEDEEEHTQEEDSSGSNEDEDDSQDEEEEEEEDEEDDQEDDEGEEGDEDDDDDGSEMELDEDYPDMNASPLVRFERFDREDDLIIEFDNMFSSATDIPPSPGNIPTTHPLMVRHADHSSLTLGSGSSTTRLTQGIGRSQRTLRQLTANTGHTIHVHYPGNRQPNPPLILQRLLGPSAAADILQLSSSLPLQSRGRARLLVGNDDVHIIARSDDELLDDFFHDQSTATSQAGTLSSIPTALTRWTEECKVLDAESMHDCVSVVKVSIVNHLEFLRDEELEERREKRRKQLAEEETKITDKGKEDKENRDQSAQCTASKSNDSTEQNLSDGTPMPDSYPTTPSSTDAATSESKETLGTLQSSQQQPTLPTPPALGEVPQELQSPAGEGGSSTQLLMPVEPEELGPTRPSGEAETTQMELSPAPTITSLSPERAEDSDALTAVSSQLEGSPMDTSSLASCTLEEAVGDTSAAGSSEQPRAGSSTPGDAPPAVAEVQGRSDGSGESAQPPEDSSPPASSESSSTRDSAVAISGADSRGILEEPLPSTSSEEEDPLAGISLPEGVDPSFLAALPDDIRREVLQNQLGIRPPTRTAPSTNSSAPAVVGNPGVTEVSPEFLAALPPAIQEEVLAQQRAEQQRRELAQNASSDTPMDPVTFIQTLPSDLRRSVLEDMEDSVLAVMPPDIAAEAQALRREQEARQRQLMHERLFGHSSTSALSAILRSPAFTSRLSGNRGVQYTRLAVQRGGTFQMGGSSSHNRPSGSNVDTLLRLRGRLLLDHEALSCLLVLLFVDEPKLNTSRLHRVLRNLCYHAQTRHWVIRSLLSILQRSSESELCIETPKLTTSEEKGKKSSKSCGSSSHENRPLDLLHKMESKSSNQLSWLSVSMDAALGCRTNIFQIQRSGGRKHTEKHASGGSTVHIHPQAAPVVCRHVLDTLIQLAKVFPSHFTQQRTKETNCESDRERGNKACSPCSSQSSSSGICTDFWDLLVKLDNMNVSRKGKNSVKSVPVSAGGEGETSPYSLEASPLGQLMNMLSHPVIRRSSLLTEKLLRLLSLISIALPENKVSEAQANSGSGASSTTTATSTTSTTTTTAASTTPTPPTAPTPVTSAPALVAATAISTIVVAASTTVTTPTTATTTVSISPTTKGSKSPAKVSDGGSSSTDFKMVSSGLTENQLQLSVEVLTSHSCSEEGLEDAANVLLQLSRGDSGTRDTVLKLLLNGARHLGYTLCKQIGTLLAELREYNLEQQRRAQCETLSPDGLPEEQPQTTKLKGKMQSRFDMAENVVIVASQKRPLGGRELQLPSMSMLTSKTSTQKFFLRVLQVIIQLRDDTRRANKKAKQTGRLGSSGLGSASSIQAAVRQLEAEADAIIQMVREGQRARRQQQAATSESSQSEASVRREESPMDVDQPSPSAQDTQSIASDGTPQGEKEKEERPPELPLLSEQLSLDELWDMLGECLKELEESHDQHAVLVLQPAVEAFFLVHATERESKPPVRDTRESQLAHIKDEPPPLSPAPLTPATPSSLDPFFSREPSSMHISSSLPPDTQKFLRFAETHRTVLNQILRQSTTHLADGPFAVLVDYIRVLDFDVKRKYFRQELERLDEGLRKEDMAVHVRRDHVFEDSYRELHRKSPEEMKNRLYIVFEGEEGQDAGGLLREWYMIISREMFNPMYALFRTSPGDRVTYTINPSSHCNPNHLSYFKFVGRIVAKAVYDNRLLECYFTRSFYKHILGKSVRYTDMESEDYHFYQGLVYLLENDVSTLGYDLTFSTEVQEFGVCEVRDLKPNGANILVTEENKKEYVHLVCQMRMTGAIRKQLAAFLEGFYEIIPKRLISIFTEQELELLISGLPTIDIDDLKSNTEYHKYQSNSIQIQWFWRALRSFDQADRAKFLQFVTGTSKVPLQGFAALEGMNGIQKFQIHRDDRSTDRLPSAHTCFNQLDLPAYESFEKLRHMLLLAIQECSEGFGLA
Description: as §1

HUWE1^HECT [3] = biological target: T3, HUWE1^HECT (Homo sapiens, UniProt Q7Z6Z7); experiment: Analytical SEC / intact protein MS of HUWE1^HECT-driven compound ubiquitination; type: biochemical; conditions: 20 μM compound; + ATP; WT Ub
T3 construct: the isolated HECT domain of HUWE1 (HUWE1^HECT); made in house
T3 sequence (Q7Z6Z7 3993-4374): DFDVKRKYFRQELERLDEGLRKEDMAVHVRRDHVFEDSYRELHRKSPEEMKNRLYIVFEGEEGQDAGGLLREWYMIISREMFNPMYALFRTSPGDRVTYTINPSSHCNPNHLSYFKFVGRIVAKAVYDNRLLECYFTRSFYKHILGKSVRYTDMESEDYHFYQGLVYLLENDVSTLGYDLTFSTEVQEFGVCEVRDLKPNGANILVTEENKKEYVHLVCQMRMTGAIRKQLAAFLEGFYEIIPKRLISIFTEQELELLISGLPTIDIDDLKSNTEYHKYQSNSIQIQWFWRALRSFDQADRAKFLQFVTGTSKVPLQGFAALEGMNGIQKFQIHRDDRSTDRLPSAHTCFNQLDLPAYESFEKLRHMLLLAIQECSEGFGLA
Description: HUWE1^HECT multi-turnover ubiquitination reactions were performed with 500 nM UBA1, 5 μM UBE2L3, 5 μM HUWE1^HECT and 100 μM Ub in 20 mM HEPES (pH 7.5), 100 mM NaCl and 0.5 mM TCEP in the presence of 1 mM ATP and 3 mM MgCl2. After 15 min incubation at 30 °C, the mixture was injected into a Superdex 75 Increase 3.2/300 column (Cytiva), equilibrated in 25 mM HEPES (pH 7.5), 100 mM NaCl, and 0.5 mM TCEP at 4 °C. Chromatograms were analyzed and peaks integrated with Unicorn v.7.9.02440 (Cytiva). Data were plotted with Prism v.9.3.1 (GraphPad).
Intact protein LC/MS: protein molecular weights (MWs) were determined by LC/MS on a nanoflow chromatography system (Dionex U3000 nanoRSLC), hyphenated to a hybrid quadrupole/orbitrap mass spectrometer (Q Exactive HF) with a NanoFlex ion source and controlled by Xcalibur v.2.4 (all Thermo Fisher Scientific). Proteins were dissolved in 2% (v/v) acetonitrile (ACN), 0.1% (v/v) formic acid (FA) to a concentration of 100 fmol μL^−1. For each analysis, 500 fmol were enriched on a pre-column (0.15 ×20 mm, Reprosil-Pur120 C18-AQ 5 μm; Dr. Maisch GmbH) and separated on an analytical RP-C18 column (0.075 mm×200 mm, Reprosil-Pur 120 C18-AQ; 1.9 μm, Dr. Maisch GmbH), using a 23-min linear gradient of 10–80% (v/v) ACN/0.1% (v/v) FA at 300 nl min^−1. MS data were acquired in full MS mode across the 500–1800 m/z-range at a resolution setting of 120,000 FWHM, an AGC target of 1*10e6 and a maximum fill time of 200 ms. Charge state deconvolution and MW representation were performed in Freestyle v.1.9 (Thermo Fisher Scientific), using default settings for high-resolution data.

HUWE1^FL [4] = biological target: T2, HUWE1^FL; experiment: Click chemistry-based detection of compound ubiquitination by HUWE1^FL in vitro; type: biochemical
Description: In vitro applications: Multi-turnover ubiquitination reactions were performed with 50 nM UBA1, 2.5 μM UBE2L3, 50 nM HUWE1^FL and 20 μM Ub in 20 mM HEPES (pH 7.5), 100 mM NaCl, 0.5 mM TCEP, and 20 μM derivative 6 or 7 ± 0.5 μM MCL1 at 30 °C for 10 min. The reactions were started by addition of 1 mM ATP/3 mM MgCl2 and quenched with 3 M urea. Click-chemistry labeling was performed by incubation of the samples with 20 μM IRDye 800CW Azide Infrared Dye (LI-COR), 5 mM CuSO4, 10 mM THPTA and 50 mM sodium ascorbate for 60 min at 37 °C in the dark, following by quenching with 40 mM EDTA. Following SDS-PAGE, the gels were fixed in 10% acetic acid and 30% ethanol for 2 ×15 min and washed in water overnight.

HEK293T HUWE1 KO cells = experiment: Click chemistry-based detection of compound ubiquitination in HUWE1 knock-out cells (± HUWE1 overexpression); type: cell-based, human
Description: The protocol for CRISPR/Cas9-mediated HUWE1-knockout in HEK293T cells was previously described. In short, two sgRNAs were cloned separately into pX330-U6-Chimeric_BB-CBh-hSpCas9 (a gift from Feng Zhang; http://n2t.net/addgene:42230; RRID:Addgene_42230)[68] and pSpCas9(BB)−2A-GFP (PX458) (a gift from Feng Zhang; http://n2t.net/addgene:48138; RRID:Addgene_48138)[69]. Transfections were performed with Lipofectamine LTX (Thermo Fisher Scientific), single cells FACS-seeded into 96-well plates, and clones derived from single cells screened for HUWE1 deficiency by sequencing and immunoblotting.
Transient transfections of HA-tagged HUWE1^FL WT and C4341S (Fig. 5g) were performed in antibiotic-free and FBS-free media using Lipofectamine 3000 (Thermo Fisher Scientific). 6 h post transfection the media was exchanged to media supplemented with antibiotics and FBS. 24 h post transfection cells were treated with 10 μM or 20 μM BI8626 derivative 8 for 1 h and then collected.
Cell lysate-based applications: HEK293T WT or HUWE1 KO cells at ~70% confluency on a 10-cm dish were treated with 10 μM or 20 μM BI8626 derivative 6, 7 or 8 for the indicated times. As indicated in the results section, derivative 8 yielded slightly stronger signal than 6 and was thus used for analyses of the prerequisites of cellular small-molecule ubiquitination. Treatment with 1 μM TAK243 (MedChemExpress) or 10 μM MLN4924 (Sigma-Aldrich) was performed for 1 h, prior to derivative 8 administration. […] After 20 min rotating at 4 °C, the lysate was cleared by centrifugation, the total protein concentration determined with a Pierce BCA Protein Assay Kit, the sample diluted to ~7.5 μg μL^−1 and supplemented with 5 μM IRDye 800CW Azide (LI-COR), a mixture of 2 mM CuSO4/10 mM THPTA (Jena Bioscience) and 100 mM sodium ascorbate. […] 10 μL were subjected to SDS-PAGE and analyzed by fluorescence scanning (Odyssey CLx; LI-COR) and Coomassie staining.

For `NS(=O)(=O)OC[C@H]1C[C@@H](Nc2ccnc3cc(-c4cccc(SC(F)(F)F)c4)nn23)[C@H](O)[C@@H]1O` [TAK243], the “Effect on cell-based ubiquitination of derivative 8” value (HEK293T WT cells; 1 μM TAK243 for 1 h prior to derivative 8) was “markedly reduced”.
With `NCc1ccc(CNc2ncnc3c(N4CCN(Cc5ccccc5)CC4)ncnc23)cc1` [derivative 1, N-(4-(aminomethyl)benzyl)−8-(4-benzylpiperazin-1-yl)pyrimido[5,4-d]pyrimidin-4-amine] the “HUWE1^HECT inhibition (autoubiquitination) by BI8626 derivatives” value (HUWE1^HECT [1]) was “retained HUWE1^HECT inhibition”, the “Inhibition of HUWE1^FL by BI8626 derivatives” value (HUWE1^FL [2]; 20 μM, without protein substrate and with MCL1 (Fig. 4c, d)) was “also inhibited” and the “Compound ubiquitination by HUWE1^HECT (SEC, intact protein MS)” value (HUWE1^HECT [3]) was “efficiently ubiquitinated”.
With `CN1CCN(c2ncnc3c(NCc4cccc(CN)c4)ncnc23)CC1` [derivative 5, N-(3-(aminomethyl)benzyl)−8-(4-methylpiperazin-1-yl)pyrimido[5,4-d]pyrimidin-4-amine] the “Inhibition by derivatives modified at the piperazine-linked benzyl moiety” value (from here on “Inhibition by derivatives modified”) (HUWE1^FL [2]) was “maintains considerable inhibition”.
With `C#CCCCN1CCN(c2ncnc3c(NCc4cccc(CN)c4)ncnc23)CC1` [derivative 6, N-(3-(aminomethyl)benzyl)−8-(4-(pent-4-yn-1-yl)piperazin-1-yl)pyrimido[5,4-d]pyrimidin-4-amine] the “Compound ubiquitination in cells (click chemistry, cell lysates)” value (HEK293T WT cells) was “Both mono- and polyubiquitinated forms of derivatives 6 and 8 were detected”, the “Compound ubiquitination by HUWE1^FL, click-chemistry fluorescence” value (HUWE1^FL [4]; 20 μM compound, 10 min, ATP-dependent) was “fluorescent signals corresponding to the mono- and diubiquitinated forms” and the “MCL1 ubiquitination (immunoblotting) with increasing compound” value (HUWE1^FL [4]; varying concentrations of derivative 6 and MCL1) was “decreased as the compound modification increased”. For the same compound, the “Inhibition by derivatives modified” value (HUWE1^FL [2]) was “preserved inhibition to a similar extent”.
With `C#CCN1CCN(c2ncnc3c(NCc4cccc(CN)c4)ncnc23)CC1` [derivative 8, N-(3-(aminomethyl)benzyl)−8-(4-(prop-2-yn-1-yl)piperazin-1-yl)pyrimido[5,4-d]pyrimidin-4-amine] the “Compound ubiquitination in HUWE1 knock-out cells” value (HEK293T HUWE1 KO cells; HEK293T HUWE1 KO vs WT) was “still detected in this context, albeit at slightly reduced levels”, the “Compound ubiquitination upon overexpression of WT HUWE1 (not catalytically inactive variant)” value (HEK293T HUWE1 KO cells; HEK293T HUWE1 KO, transient transfection) was “enhances compound ubiquitination” and the “Share of total compound ubiquitination signal that endogenous HUWE1 accounts for” value (HEK293T HUWE1 KO cells; HEK293T WT vs HUWE1 KO, all species (8-Ub, 8-Ub2, 8-Ubn)) was no more than 25%. For the same compound, the “Compound ubiquitination in cells (click chemistry, cell lysates)” value (HEK293T WT cells) was “Both mono- and polyubiquitinated forms of derivatives 6 and 8 were detected” and the “Inhibition by derivatives modified” value (HUWE1^FL [2]) was “preserved inhibition to a similar extent”.
`NS(=O)(=O)OC[C@@H]1C[C@@H](n2ccc3c(N[C@H]4CCc5ccccc54)ncnc32)C[C@@H]1O` [MLN4924] was tested, and the “Effect on cell-based ubiquitination of derivative 8” value (HEK293T WT cells; 10 μM MLN4924 for 1 h prior to derivative 8) was “does not markedly affect derivative 8 ubiquitination”.
